In PubChem BioAssay AID248 (DTP/NCI, 2004):
“And” between values parts separate entries of the source, which are not always exact repeats. Equal values may be shown once. Inconclusive results and toxic doses are left out. No stated cut-off is given here; in the data, active means T/C of 150% or more; inactive means T/C below 125%.

System: L1210 leukemia ip in BDF1 mice, survival T/C
Experiment: NCI In Vivo Anticancer Drug Screen. Data for tumor model L1210 Leukemia (intraperitoneal) in B6D2F1 (BDF1) mice
Settings: endpoint: mean survival time, higher = longer survival
Method in brief: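 Antitumor effect is assessed in tumor-bearing animals. Survival in the compound arm is compared with a vehicle-dosed control arm and expressed as their quotient.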

[1] = dose: 100.0 mg/kg/injection, schedule: Q01DX009 (ip), vehicle: water
[2] = dose: 200.0 mg/kg/injection, schedule: Q01DX009 (ip), vehicle: water
[3] = dose: 100.0 mg/kg/injection, schedule: Q04DX003 (ip), vehicle: saline
[4] = dose: 200.0 mg/kg/injection, schedule: Q04DX003 (ip), vehicle: saline
[5] = dose: 25.0 mg/kg/injection, schedule: Q04DX003 (ip), vehicle: saline
[6] = dose: 50.0 mg/kg/injection, schedule: Q01DX009 (ip), vehicle: Klucel (hydroxypropylcellulose) (HPC)
[7] = dose: 50.0 mg/kg/injection, schedule: Q04DX003 (ip), vehicle: saline
[8] = dose: 100.0 mg/kg/injection, schedule: Q01DX009 (ip), vehicle: Klucel (hydroxypropylcellulose) (HPC)
[9] = dose: 200.0 mg/kg/injection, schedule: Q01DX009 (ip), vehicle: Klucel (hydroxypropylcellulose) (HPC)
[10] = dose: 400.0 mg/kg/injection, schedule: Q01DX009 (ip), vehicle: Klucel (hydroxypropylcellulose) (HPC)
[11] = dose: 100.0 mg/kg/injection, schedule: Q04DX003 (ip), vehicle: Klucel (hydroxypropylcellulose) (HPC)
[12] = dose: 200.0 mg/kg/injection, schedule: Q04DX003 (ip), vehicle: Klucel (hydroxypropylcellulose) (HPC)
[13] = dose: 400.0 mg/kg/injection, schedule: Q04DX003 (ip), vehicle: Klucel (hydroxypropylcellulose) (HPC)
[14] = dose: 100.0 mg/kg/injection, schedule: Q04DX002 (ip), vehicle: saline
[15] = dose: 200.0 mg/kg/injection, schedule: Q04DX002 (ip), vehicle: saline
[16] = dose: 400.0 mg/kg/injection, schedule: Q04DX002 (ip), vehicle: saline

Measured: T/C

O=Cc1ccc(Oc2ccc([N+](=O)[O-])cc2[N+](=O)[O-])cc1
inactive: dose: 25.0 mg/kg/injection, schedule: Q01DX009 (ip), vehicle: water 96 % of control | dose: 50.0 mg/kg/injection, schedule: Q01DX009 (ip), vehicle: water 102 % of control | [1] 104 % of control | [2] 95 % of control | dose: 400.0 mg/kg/injection, schedule: Q01DX009 (ip), vehicle: water 98 % of control

CC(=O)N1CCOCC1
inactive: [3] 93 % of control | [4] 98 % of control | dose: 400.0 mg/kg/injection, schedule: Q04DX003 (ip), vehicle: saline 102 % of control

NC1CCCC[N-]1.NC1CCCC[N-]1.NC1CCCC[N-]1.[Cl][Cr]([Cl])[Cl] (stereo unspecified)
inactive: dose: 18.75 mg/kg/injection, schedule: Q04DX003 (ip), vehicle: saline 94 % of control | dose: 37.5 mg/kg/injection, schedule: Q04DX003 (ip), vehicle: saline 92 % of control | dose: 75.0 mg/kg/injection, schedule: Q04DX003 (ip), vehicle: saline 89 % of control

NC(Cc1ccc(N(CCCl)Cc2ccccc2)cc1)C(=O)O (stereo unspecified)
inactive: dose: 3.12 mg/kg/injection, schedule: Q01DX009 (ip), vehicle: distilled water + Tween-80 97 % of control | dose: 6.25 mg/kg/injection, schedule: Q01DX009 (ip), vehicle: distilled water + Tween-80 107 % of control | dose: 12.5 mg/kg/injection, schedule: Q01DX009 (ip), vehicle: distilled water + Tween-80 96 % of control | dose: 25.0 mg/kg/injection, schedule: Q01DX009 (ip), vehicle: distilled water + Tween-80 113 % of control | dose: 100.0 mg/kg/injection, schedule: Q01DX009 (ip), vehicle: distilled water + Tween-80 97 % of control

COc1cccc(N=C(N)N=C(N)N)c1
inactive: dose: 75.0 mg/kg/injection, schedule: Q01DX001 (ip), vehicle: saline 101 % of control | dose: 150.0 mg/kg/injection, schedule: Q01DX001 (ip), vehicle: saline 101 % of control | dose: 300.0 mg/kg/injection, schedule: Q01DX001 (ip), vehicle: saline 107 % of control

CN=C(c1ccc(NC(=O)c2ccc(C(=O)Nc3ccc(C(=NC)N(C)Cc4ccccc4)cc3)cc2)cc1)N(C)Cc1ccccc1
inactive: dose: 1.88 mg/kg/injection, schedule: Q01DX Z (ip), vehicle: saline 104 % of control | dose: 3.75 mg/kg/injection, schedule: Q01DX Z (ip), vehicle: saline 98 % of control | dose: 7.5 mg/kg/injection, schedule: Q01DX Z (ip), vehicle: saline 97 % of control

C[S+](C)C
inactive: dose: 12.0 mg/kg/injection, schedule: Q01DX009 (ip), vehicle: saline 104 % of control | dose: 25.0 mg/kg/injection, schedule: Q01DX009 (ip), vehicle: saline 93 % of control and 100 % of control | [5] 93 % of control | [6] 91 % of control | dose: 50.0 mg/kg/injection, schedule: Q01DX009 (ip), vehicle: saline 100 % of control and 98 % of control | [7] 98 % of control | dose: 100.0 mg/kg/injection, schedule: Q01DX001 (ip), vehicle: saline 96 % of control | dose: 100.0 mg/kg/injection, schedule: Q01DX009 (ip), vehicle: saline 90 % of control | [3] 97 % of control and 88 % of control

CN1CCN(C(=O)N2c3ccccc3Sc3ccccc32)CC1
inactive: dose: 12.5 mg/kg/injection, schedule: Q04DX003 (ip), vehicle: saline 99 % of control | [5] 95 % of control | [7] 101 % of control | [3] 100 % of control | [4] 92 % of control

COc1cccc(OC)c1OC(=O)Nc1cccc(C(F)(F)F)c1
inactive: [8] 101 % of control | [9] 98 % of control | [10] 90 % of control

C/C(CC(=O)O)=C(\C)C(=O)O
inactive: [1] 95 % of control | dose: 100.0 mg/kg/injection, schedule: Q04DX003 (ip), vehicle: water 96 % of control | [2] 91 % of control | dose: 200.0 mg/kg/injection, schedule: Q04DX003 (ip), vehicle: water 102 % of control | dose: 400.0 mg/kg/injection, schedule: Q04DX003 (ip), vehicle: water 104 % of control

CCCCCCCCOc1ccc(C=Nc2ccc(C)cc2)cc1
inactive: [8] 98 % of control | [9] 104 % of control | [10] 92 % of control

CC1(N)CCC(C(C)(C)N)CC1 (stereo unspecified)
inactive: dose: 25.0 mg/kg/injection, schedule: Q01DX009 (ip), vehicle: saline with Tween-80 103 % of control | dose: 50.0 mg/kg/injection, schedule: Q01DX009 (ip), vehicle: saline with Tween-80 97 % of control | dose: 100.0 mg/kg/injection, schedule: Q01DX009 (ip), vehicle: saline with Tween-80 92 % of control

Cc1c(-c2ccccc2)nn(O)c1-c1ccccc1
inactive: [6] 102 % of control | [8] 102 % of control | [9] 94 % of control

Cc1ccc(C)c(NC(=O)c2ccc(Cl)c(Cl)c2)c1
inactive: dose: 1.5 mg/kg/injection, schedule: Q01DX009 (ip), vehicle: Klucel (hydroxypropylcellulose) (HPC) 92 % of control | dose: 3.0 mg/kg/injection, schedule: Q01DX009 (ip), vehicle: Klucel (hydroxypropylcellulose) (HPC) 99 % of control | dose: 6.0 mg/kg/injection, schedule: Q01DX009 (ip), vehicle: Klucel (hydroxypropylcellulose) (HPC) 97 % of control | dose: 6.25 mg/kg/injection, schedule: Q01DX009 (ip), vehicle: Klucel (hydroxypropylcellulose) (HPC) 88 % of control | [6] 86 % of control | [11] 93 % of control | [12] 91 % of control | [10] 86 % of control | [13] 90 % of control

C[CH2][Sn]([CH2]C)([CH2]C)[O]c1ccccc1
inactive: dose: 1.56 mg/kg/injection, schedule: Q01DX009 (ip), vehicle: saline with Tween-80 97 % of control | dose: 3.12 mg/kg/injection, schedule: Q01DX009 (ip), vehicle: saline with Tween-80 108 % of control

CC(NC(=O)c1ccc(Cl)c(Cl)c1)c1ccc(-c2ccccc2)cc1 (stereo unspecified)
inactive: dose: 100.0 mg/kg/injection, schedule: Q04DX002 (ip), vehicle: saline with Tween-80 102 % of control | dose: 200.0 mg/kg/injection, schedule: Q04DX002 (ip), vehicle: saline with Tween-80 91 % of control | dose: 400.0 mg/kg/injection, schedule: Q04DX002 (ip), vehicle: saline with Tween-80 87 % of control

CCCN(CCC#N)CN1C(=O)c2ccccc2C1=O
inactive: dose: 100.0 mg/kg/injection, schedule: Q01DX001 (ip), vehicle: carboxymethylcellulose (CMC) 110 % of control | dose: 100.0 mg/kg/injection, schedule: Q01DX009 (ip), vehicle: carboxymethylcellulose (CMC) 90 % of control | dose: 100.0 mg/kg/injection, schedule: Q04DX002 (ip), vehicle: carboxymethylcellulose (CMC) 98 % of control and 100 % of control | dose: 100.0 mg/kg/injection, schedule: Q04DX003 (ip), vehicle: carboxymethylcellulose (CMC) 95 % of control | dose: 200.0 mg/kg/injection, schedule: Q01DX001 (ip), vehicle: carboxymethylcellulose (CMC) 113 % of control | dose: 200.0 mg/kg/injection, schedule: Q01DX009 (ip), vehicle: carboxymethylcellulose (CMC) 93 % of control | dose: 200.0 mg/kg/injection, schedule: Q04DX002 (ip), vehicle: carboxymethylcellulose (CMC) 94 % of control and 102 % of control | dose: 200.0 mg/kg/injection, schedule: Q04DX003 (ip), vehicle: carboxymethylcellulose (CMC) 101 % of control | dose: 400.0 mg/kg/injection, schedule: Q01DX001 (ip), vehicle: carboxymethylcellulose (CMC) 97 % of control | dose: 400.0 mg/kg/injection, schedule: Q01DX009 (ip), vehicle: carboxymethylcellulose (CMC) 100 % of control | dose: 400.0 mg/kg/injection, schedule: Q04DX002 (ip), vehicle: carboxymethylcellulose (CMC) 94 % of control and 97 % of control | dose: 400.0 mg/kg/injection, schedule: Q04DX003 (ip), vehicle: carboxymethylcellulose (CMC) 107 % of control

O=C(O)C1CCOCC1
inactive: [8] 98 % of control | [11] 96 % of control | [9] 95 % of control | [12] 89 % of control | [10] 111 % of control | [13] 88 % of control

CCOCCOCCOC(C)Oc1cccc(OC)c1 (stereo unspecified)
inactive: [14] 107 % of control | [15] 101 % of control | [16] 96 % of control

O=S(=O)(O)CCNC(=S)C(=S)NCCS(=O)(=O)O
inactive: [14] 101 % of control | [15] 101 % of control | [16] 101 % of control
